We go through 29 molecules from patent US10239843B2 (CANCER RESEARCH TECHNOLOGY LIMITED, priority 2014, dated 2019).

For one assay, the target named is Human Full Length PARG (Homo sapiens (Human), UniProt Q86W56). Put plainly: PARG enzyme assay (TR-FRET). In kind it is biochemical. In general terms: Time-resolved FRET reads energy transfer from a long-lived donor to a nearby acceptor.
The test system of another assay is PARG in HeLa cell line. Put plainly: PARG cell assay (PAR chain immunofluorescence after MMS). In kind it is cell-based. The conditions noted are these: HeLa cells. The method, boiled down:
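HeLa cells were dosed with compound for 1 h, then given MMS at 50 μg/mL final for a further hour. Cells were methanol-fixed, permeabilised and stained overnight at 4° C with anti-PAR monoclonal antibody. Retained nuclear PAR chains, detected by indirect immunofluorescence, indicate PARG inhibition.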

A further assay has as its target Human Full Length ARH3 (Homo sapiens (Human), UniProt Q9NX46). Put plainly: ARH3 in vitro selectivity assay (TR-FRET). The class given is biochemical. The conditions noted are these: read-out: ARH3 Biochem IC50.
The target in assay [1] is Human High specific Activity PARP1 (Homo sapiens (Human), UniProt P09874). Put plainly: PARP1 in vitro selectivity assay (histone PARylation, luminescence). In kind it is biochemical. Particulars: read-out: PARP1 Biochem IC50. The procedure:
PARP1 In vitro selectivity assays were conducted as a 10 ul reaction volume in a NUNC Maxisorp 384-well assay plate pre-coated in-house with Histones. […] The wells were then washed with PBS/0.1% Triton X100. PARP1 activity was then detected by measuring the extent of PARylation. […] Luminescence signal was then measured immediately.

Setting [2] is: Homo sapiens, MMS treatment, read-out: PARG Cell IC50.
The mark [3] stands for this setting: read-out: PARG Biochem IC50 Geomean.
Where [4] appears, read: MMS 50 μg/mL, read-out: PARG Cell IC50 Geomean.
[5] abbreviates: Homo sapiens, MMS 50 μg/mL, read-out: PARG Cell IC50 Geomean.
The mark [6] stands for this setting: MMS treatment, read-out: PARG Cell IC50.

Usually IC50 stands for the concentration that inhibits the measured activity by half.

Where two headings read alike, the source gives them in different places.

Chain of Human High specific Activity PARP1 (P09874 whole entry): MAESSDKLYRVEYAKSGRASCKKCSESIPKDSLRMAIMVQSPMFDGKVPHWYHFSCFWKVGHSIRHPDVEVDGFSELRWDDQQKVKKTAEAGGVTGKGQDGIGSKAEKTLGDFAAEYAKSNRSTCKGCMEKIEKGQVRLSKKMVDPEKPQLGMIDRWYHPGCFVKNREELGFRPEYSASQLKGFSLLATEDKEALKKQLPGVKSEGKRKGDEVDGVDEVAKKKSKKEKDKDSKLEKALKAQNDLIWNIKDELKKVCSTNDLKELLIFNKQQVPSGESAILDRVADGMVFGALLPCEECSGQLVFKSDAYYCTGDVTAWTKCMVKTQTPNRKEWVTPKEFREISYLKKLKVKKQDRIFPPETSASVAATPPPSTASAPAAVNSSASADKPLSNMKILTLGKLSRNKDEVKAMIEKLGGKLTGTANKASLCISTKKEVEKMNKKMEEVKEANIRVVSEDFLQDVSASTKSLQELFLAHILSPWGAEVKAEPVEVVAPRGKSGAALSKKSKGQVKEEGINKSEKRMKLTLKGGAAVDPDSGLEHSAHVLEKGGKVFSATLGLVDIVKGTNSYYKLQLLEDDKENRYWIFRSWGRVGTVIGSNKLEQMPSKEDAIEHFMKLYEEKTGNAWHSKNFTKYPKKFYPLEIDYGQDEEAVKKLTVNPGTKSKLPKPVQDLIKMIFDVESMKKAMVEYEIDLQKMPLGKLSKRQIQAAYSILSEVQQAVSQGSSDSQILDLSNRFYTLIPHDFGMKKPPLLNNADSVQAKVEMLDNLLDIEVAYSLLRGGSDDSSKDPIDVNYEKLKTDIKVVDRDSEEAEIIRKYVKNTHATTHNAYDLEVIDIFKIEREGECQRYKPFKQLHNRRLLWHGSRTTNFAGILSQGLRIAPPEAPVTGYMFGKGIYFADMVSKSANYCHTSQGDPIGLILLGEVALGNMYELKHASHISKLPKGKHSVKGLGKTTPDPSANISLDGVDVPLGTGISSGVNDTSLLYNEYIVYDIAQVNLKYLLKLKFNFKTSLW
Chain of Human Full Length PARG (Q86W56 whole entry): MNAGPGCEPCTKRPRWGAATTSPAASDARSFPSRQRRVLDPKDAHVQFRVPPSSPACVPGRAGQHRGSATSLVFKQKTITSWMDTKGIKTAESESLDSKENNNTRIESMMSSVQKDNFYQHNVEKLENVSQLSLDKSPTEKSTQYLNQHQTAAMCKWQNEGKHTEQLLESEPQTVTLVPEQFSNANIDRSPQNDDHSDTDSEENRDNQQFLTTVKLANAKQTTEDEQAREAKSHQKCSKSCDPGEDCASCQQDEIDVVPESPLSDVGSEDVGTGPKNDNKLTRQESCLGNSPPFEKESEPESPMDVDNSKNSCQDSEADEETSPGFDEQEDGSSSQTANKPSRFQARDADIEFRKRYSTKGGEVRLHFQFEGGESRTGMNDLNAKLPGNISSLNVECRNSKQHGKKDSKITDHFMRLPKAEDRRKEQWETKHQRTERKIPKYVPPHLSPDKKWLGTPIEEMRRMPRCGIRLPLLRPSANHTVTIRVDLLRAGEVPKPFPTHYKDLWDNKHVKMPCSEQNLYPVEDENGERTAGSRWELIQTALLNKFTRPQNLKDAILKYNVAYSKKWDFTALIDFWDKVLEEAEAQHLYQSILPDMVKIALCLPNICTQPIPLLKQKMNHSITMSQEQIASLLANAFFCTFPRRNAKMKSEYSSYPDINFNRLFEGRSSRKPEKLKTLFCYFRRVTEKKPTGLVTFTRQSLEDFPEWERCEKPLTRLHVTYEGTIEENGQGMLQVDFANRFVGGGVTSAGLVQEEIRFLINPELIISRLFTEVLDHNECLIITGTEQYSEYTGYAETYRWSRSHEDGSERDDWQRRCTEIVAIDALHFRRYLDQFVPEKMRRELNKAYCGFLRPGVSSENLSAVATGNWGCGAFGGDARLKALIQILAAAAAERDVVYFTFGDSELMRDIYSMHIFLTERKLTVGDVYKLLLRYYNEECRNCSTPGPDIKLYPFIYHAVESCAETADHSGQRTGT
Chain of Human Full Length ARH3 (Q9NX46 whole entry): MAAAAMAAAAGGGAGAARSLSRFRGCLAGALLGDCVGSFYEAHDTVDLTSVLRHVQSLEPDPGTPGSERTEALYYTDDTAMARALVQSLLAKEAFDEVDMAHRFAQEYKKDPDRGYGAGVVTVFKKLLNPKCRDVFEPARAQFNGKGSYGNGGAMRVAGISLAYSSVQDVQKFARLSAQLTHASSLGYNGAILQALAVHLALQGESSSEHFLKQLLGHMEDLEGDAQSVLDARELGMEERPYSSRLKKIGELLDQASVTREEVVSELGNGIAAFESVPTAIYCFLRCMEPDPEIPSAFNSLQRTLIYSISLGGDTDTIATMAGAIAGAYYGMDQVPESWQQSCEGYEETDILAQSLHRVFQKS
Description for Human Full Length ARH3: ARH3 In vitro selectivity assays were conducted in a total volume of 15 ul in a standard 384 well format.

In the case of `Cc1nc(Cn2c(=O)n(Cc3nnc(C)s3)c(=O)c3cc(S(=O)(=O)NC4(CF)CC4)ccc32)no1` [Example 631, N-[1-(Fluoromethyl)cyclopropyl]-1-[(5-methyl-1,2,4-oxadiazol-3-yl)methyl]-3-[(5-methyl-1,3,4-thiadiazol-2-yl)methyl]-2,4-dioxo-quinazoline-6-sulfonamide], the 50% inhibitory concentration (IC50) was 0.121 µM at Human Full Length PARG (read-out: PARG Biochem IC50), 0.706 µM with PARG in HeLa cell line (setting [2]) and more than 150 µM on Human Full Length ARH3.
Take `Cn1c(=O)c(=O)n(CC2CC2)c2ccc(S(=O)(=O)NC3(C)CC3)cc21` [Example 22, 1-(Cyclopropylmethyl)-4-methyl-N-(1-methylcyclopropyl)-2,3-dioxo-quinoxaline-6-sulfonamide]: the IC50 on Human Full Length PARG (setting [3]) was 1.02 µM; in assay [1], more than 150 µM; at Human Full Length ARH3 it was more than 150 µM.
Turning to `Cc1cc(Cn2nc(Cc3ccccc3)c3ccc(S(=O)(=O)NC4(C)CC4)cc3c2=O)on1` [Example 298], the IC50 was 0.648 µM at Human Full Length PARG (setting [3]), more than 150 µM in assay [1] and more than 150 µM at Human Full Length ARH3.
For the molecule `Cc1ncc(Cn2c(=O)c3cc(S(=O)(=O)NC4(C)CC4)ccc3n(Cc3sc(C)nc3C)c2=O)s1` [Example 162], the IC50 at Human Full Length PARG (setting [3]) was 0.004 µM; in assay [1], more than 150 µM; in the assay with PARG in HeLa cell line (setting [4]) it was 0.009 µM; at Human Full Length ARH3, more than 100 µM.
With `CCCCn1c(=O)n(Cc2cnn(C)c2)c(=O)c2cc(S(=O)(=O)NC3(CF)CC3)ccc21` [Example 617, 1-Butyl-N-[1-(fluoromethyl)cyclopropyl]-3-[(1-methylpyrazol-4-yl)methyl]-2,4-dioxo-quinazoline-6-sulfonamide], the results for the IC50 on Human Full Length PARG (read-out: PARG Biochem IC50), in the assay on PARG in HeLa cell line (setting [2]) and on Human Full Length ARH3 were 0.039 µM, 0.037 µM and more than 150 µM, respectively.
`Cc1nc(C)c(Cn2c(=O)n(Cc3c(C)noc3C)c(=O)c3cc(S(=O)(=O)NC4(C)CC4)ccc32)s1` [Example 165]: the IC50 at Human Full Length PARG (setting [3]) was 0.033 µM; in assay [1], more than 150 µM; in the assay on PARG in HeLa cell line (setting [5]) it was 0.063 µM; on Human Full Length ARH3, more than 100 µM.
Regarding `Cc1nnc(Cn2c(=O)c3cc(S(=O)(=O)NC4(CF)CC4)ccc3n(Cc3cnn(C)c3)c2=O)s1` [Example 630, N-[1-(Fluoromethyl)cyclopropyl]-1-[(1-methylpyrazol-4-yl)methyl]-3-[(5-methyl-1,3,4-thiadiazol-2-yl)methyl]-2,4-dioxo-quinazoline-6-sulfonamide], the results for the IC50 at Human Full Length PARG (read-out: PARG Biochem IC50), with PARG in HeLa cell line (setting [6]) and at Human Full Length ARH3 were 0.016 µM, 0.542 µM and more than 150 µM, respectively.
As to `CC1(NS(=O)(=O)c2ccc3nc(N4CCCC4)[nH]c(=O)c3c2)CC1` [Example 98], the IC50 at Human Full Length PARG (setting [3]) is 9.44 µM; in assay [1], more than 150 µM; on Human Full Length ARH3, more than 150 µM.
`Cc1nnc(Cn2c(=O)c3cc(S(=O)(=O)NC4(CF)CC4)ccc3n(CCF)c2=O)s1` [Example 629, 1-(2-Fluoroethyl)-N-[1-(fluoromethyl)cyclopropyl]-3-[(5-methyl-1,3,4-thiadiazol-2-yl)methyl]-2,4-dioxo-quinazoline-6-sulfonamide]: the IC50 on Human Full Length PARG (read-out: PARG Biochem IC50) is 0.082 µM; with PARG in HeLa cell line (setting [2]), 0.226 µM; on Human Full Length ARH3, more than 150 µM.
With `Cn1cc(Cn2c(=O)c3cc(S(=O)(=O)NC4(CF)CC4)ccc3n(Cc3ccns3)c2=O)cn1` [Example 578, N-[1-(Fluoromethyl)cyclopropyl]-1-(isothiazol-5-ylmethyl)-3-[(1-methylpyrazol-4-yl)methyl]-2,4-dioxo-quinazoline-6-sulfonamide], the results for the IC50 at Human Full Length PARG (read-out: PARG Biochem IC50) and at Human Full Length ARH3 were 0.01 µM and more than 150 µM, respectively.
`Cc1ncsc1Cn1c(=O)n(Cc2cnn(C)c2)c(=O)c2cc(S(=O)(=O)NC3(CF)CC3)ccc21` [Example 572, N-[1-(Fluoromethyl)cyclopropyl]-3-[(1-methylpyrazol-4-yl)methyl]-1-[(4-methylthiazol-5-yl)methyl]-2,4-dioxo-quinazoline-6-sulfonamide]: the IC50 on Human Full Length PARG (read-out: PARG Biochem IC50) is 0.007 µM; at Human Full Length ARH3, more than 150 µM.
`Cc1cc(Cn2c(=O)c3cc(S(=O)(=O)NC4(CF)CC4)ccc3n(C)c2=O)sn1` [Example 625, N-[1-(Fluoromethyl)cyclopropyl]-1-methyl-3-[(3-methylisothiazol-5-yl)methyl]-2,4-dioxo-quinazoline-6-sulfonamide]: the IC50 at Human Full Length PARG (read-out: PARG Biochem IC50) was 0.597 µM; in the assay with PARG in HeLa cell line (setting [2]) it was 0.73 µM; on Human Full Length ARH3, more than 150 µM.
On to `Cc1cc(Cn2cc(C(=O)C3CC3)c3ccc(S(=O)(=O)NC4(C)CC4)cc3c2=O)on1` [Example 311, 4-(Cyclopropanecarbonyl)-N-(1-methylcyclopropyl)-2-[(3-methylisoxazol-5-yl)methyl]-1-oxo-isoquinoline-7-sulfonamide], for which the results for the IC50 (on Human Full Length PARG (setting [3]); in assay [1]; at Human Full Length ARH3) were 0.549 µM, more than 150 µM and more than 150 µM, respectively.
`Cc1cc(Cn2c(=O)c3cc(S(=O)(=O)NC4(CF)CC4)ccc3n(Cc3sc(C)nc3C)c2=O)on1` [Example 616, 1-[(2,4-Dimethylthiazol-5-yl)methyl]-N-[1-(fluoromethyl)cyclopropyl]-3-[(3-methylisoxazol-5-yl)methyl]-2,4-dioxo-quinazoline-6-sulfonamide]: the IC50 at Human Full Length PARG (read-out: PARG Biochem IC50) was 0.017 µM; in the assay with PARG in HeLa cell line (setting [2]), 0.025 µM; at Human Full Length ARH3 it was more than 150 µM.
In the case of `CCn1c(=O)n(Cc2nnc(C)s2)c(=O)c2cc(S(=O)(=O)NC3(C)CC3)ccc21` [Example 614, 1-Ethyl-N-(1-methylcyclopropyl)-3-[(5-methyl-1,3,4-thiadiazol-2-yl)methyl]-2,4-dioxo-quinazoline-6-sulfonamide], the IC50 at Human Full Length PARG (read-out: PARG Biochem IC50) was 0.239 µM; in the assay on PARG in HeLa cell line (setting [6]), 0.122 µM; on Human Full Length ARH3, more than 150 µM.
Take `Cn1c(C2CC2)nc2ccc(S(=O)(=O)NC3(C)CC3)cc2c1=O` [Example 80]: the IC50 at Human Full Length PARG (setting [3]) is 2.18 µM; in assay [1], more than 150 µM; at Human Full Length ARH3, more than 150 µM.
Regarding `Cc1cc(Cn2c(=O)[nH]c3ccc(S(=O)(=O)NC4(CF)CC4)cc3c2=O)on1` [Example 516, N-[1-(Fluoromethyl)cyclopropyl]-3-[(3-methylisoxazol-5-yl)methyl]-2,4-dioxo-1H-quinazoline-6-sulfonamide], the values for the IC50 on Human Full Length PARG (read-out: PARG Biochem IC50) and with PARG in HeLa cell line (setting [2]) were 0.443 µM and 0.807 µM, respectively.
`Cn1cc(Cn2c(=O)c3cc(S(=O)(=O)NC4(C)CC4)ccc3n(CCC(C)(C)O)c2=O)cn1` [Example 368]: the IC50 on Human Full Length PARG (setting [3]) is 0.108 µM; with PARG in HeLa cell line (setting [4]), 0.217 µM.
For the molecule `CC(=O)Cn1c(=O)n(Cc2cc(C)no2)c(=O)c2cc(S(=O)(=O)NC3(C)CC3)ccc21` [Example 323], the IC50 was 0.417 µM on Human Full Length PARG (setting [3]) and 0.736 µM in the assay with PARG in HeLa cell line (setting [5]).
As for `Cc1cc(Cn2c(=O)c3cc(S(=O)(=O)NC4(C)CC4)ccc3n(Cc3cc(C)nn3C)c2=O)on1` [Example 207], the values for the IC50 at Human Full Length PARG (setting [3]) and in the assay on PARG in HeLa cell line (setting [4]) were 0.038 µM and 0.116 µM, respectively.
Consider `Cc1oncc1Cn1c(=O)n(Cc2cnn(C)c2)c(=O)c2cc(S(=O)(=O)NC3(CF)CC3)ccc21` [Example 579, N-[1-(Fluoromethyl)cyclopropyl]-1-[(5-methylisoxazol-4-yl)methyl]-3-[(1-methylpyrazol-4-yl)methyl]-2,4-dioxo-quinazoline-6-sulfonamide], for which the values for the IC50 on Human Full Length PARG (read-out: PARG Biochem IC50) and at Human Full Length ARH3 were 0.009 µM and more than 150 µM, respectively.
With `Cn1cc(Cn2c(OCC3(C)COC3)nc3cc(F)c(S(=O)(=O)NC4(C)CC4)cc3c2=O)cn1` [Example 397, 7-Fluoro-3-((1-methyl-1H-pyrazol-4-yl)methyl)-N-(1-methylcyclopropyl)-2-((3-methyloxetan-3-yl)methoxy)-4-oxo-3,4-dihydroquinazoline-6-sulfonamide], the IC50 on Human Full Length PARG (read-out: PARG Biochem IC50) was determined as 0.282 µM; in the assay on PARG in HeLa cell line (setting [2]), 0.256 µM.
For `Cn1cc(Cn2c(=O)c3cc(S(=O)(=O)NC4(C)CC4)ccc3n(CC3CCO3)c2=O)cn1` (stereo not drawn) [Example 343], the IC50 at Human Full Length PARG (setting [3]) was found to be 0.195 µM; in the assay on PARG in HeLa cell line (setting [5]), 0.351 µM.
Taken in the same sequence, the figures for `Cc1cc(Cn2c(=O)c3cc(S(=O)(=O)NC4(C)CC4)ccc3n(CC3(F)COC3)c2=O)on1` [Example 350] were 0.32 µM and 0.341 µM.
Taken in the same sequence, the figures for `Cn1cc(Cn2c(=O)c3cc(S(=O)(=O)NC4(C)CC4)ccc3n(Cc3ccc(F)cc3)c2=O)cn1` [Example 171] were 0.049 µM and 0.103 µM.
As to `Cn1cc(Cn2c(=O)c3cc(S(=O)(=O)NC4(CF)CC4)ccc3n(Cc3cocn3)c2=O)cn1` [Example 607, N-[1-(Fluoromethyl)cyclopropyl]-3-[(1-methylpyrazol-4-yl)methyl]-1-(oxazol-4-ylmethyl)-2,4-dioxo-quinazoline-6-sulfonamide], the IC50 at Human Full Length PARG (read-out: PARG Biochem IC50) worked out at 0.063 µM; in the assay with PARG in HeLa cell line (setting [2]), 0.076 µM.
Taken in the same sequence, the figures for `Cc1cc(Cn2c(=O)n(Cc3cnc(C)s3)c(=O)c3cc(S(=O)(=O)NC4(C#N)CC4)ccc32)on1` [Example 400, N-(1-Cyanocyclopropyl)-1-[(3-methylisoxazol-5-yl)methyl]-3-[(2-methylthiazol-5-yl)methyl]-2,4-dioxo-quinazoline-6-sulfonamide] were 0.027 µM and 0.32 µM.
As for `CNc1nc2ccc(S(=O)(=O)NC3(C)CC3)cc2n(C)c1=O` [Example 41, 4-Methyl-2-(methylamino)-N-(1-methylcyclopropyl)-3-oxo-quinoxaline-6-sulfonamide], the IC50 at Human Full Length PARG (setting [3]) is 5.55 µM; in assay [1], more than 150 µM; at Human Full Length ARH3 it was more than 150 µM.
`Cc1cc(Cn2c(=O)c3cc(S(=O)(=O)NC4(C)CC4)ccc3n(Cc3noc(C)n3)c2=O)on1` [Example 243]: the concentration for half-maximal inhibition (IC50) at Human Full Length PARG (setting [3]) worked out at 0.312 µM; with PARG in HeLa cell line (setting [5]), 0.221 µM.
